Marks after values point to notes of the source that are not given here. Where a SMILES comes first, the peptide text is derived from it. The star is where a group is joined. Cbz = O=C(OCc1ccccc1)*; OtBu = CC(C)(C)O*
Key:
[1] = test system: ICR Swiss mice; assay: Bone volume and bone formation rates in ICR Swiss mice; format: in vivo; details: n=10
Procedure: Briefly, test compound, positive control compound, PBS, or vehicle alone is administered subcutaneously once per day for 35 days. All animals are injected with calcein nine days and two days before sacrifice (two injections of calcein administered each designated day). Weekly body weights are determined. At the end of the 35-day cycle, the animals are weighed and bled by orbital or cardiac puncture. Serum calcium, phosphate, osteocalcin, and CBCs are determined. Both leg bones (femur and tibia) and lumbar vertebrae are removed, cleaned of adhering soft tissue, and stored in 70% ethanol for evaluation, as performed by peripheral quantitative computed tomography (pQCT; Ferretti, J., Bone (1995) 17:353S-64S), dual energy X-ray absorptiometry (DEXA; Laval-Jeantet A., et al., Calcif Tissue Intl (1995) 56:14-18; J. Casez, et al., Bone and Mineral (1994) 26:61-68) and/or histomorphometry. The effect of test compounds on bone remodeling can thus be evaluated.
Microtubule Inhibitor TN-16 Increases Bone Volume and Bone Formation Rates in ICR Swiss Mice.

[2] = test system: Calvariae of one-month-old ICR Swiss mice; assay: New bone formation on calvariae (new bone width by histomorphometry); format: in vivo; details: x2d, mean ± SE, n=5
Procedure: (§1) Male ICR Swiss white mice, aged 4-6 weeks and weighing 13-26 gm, are employed, using 4-5 mice per group. The calvarial bone growth assay is performed as described in PCT application WO95/24211, incorporated by reference. Briefly, the test compound or appropriate control vehicle is injected into the subcutaneous tissue over the right calvaria of normal mice. Typically, the control vehicle is the vehicle in which the compound was solubilized, and is PBS containing 5% DMSO or is PBS containing Tween (2 μl/10 ml). The animals are sacrificed on day 14 and bone growth measured by histomorphometry. Bone samples for quantitation are cleaned from adjacent tissues and fixed in 10% buffered formalin for 24-48 hours, decalcified in 14% EDTA for 1-3 weeks, processed through graded alcohols; and embedded in paraffin wax. Three to five μm sections of the calvaria are prepared, and representative sections are selected for histomorphometric assessment of the effects on bone formation and bone resorption. Sections are measured by using a camera lucida attachment to trace directly the microscopic image onto a digitizing plate. Bone changes are measured on sections cut 200 μm apart, over 4 adjacent 1×1 mm fields on both the injected and noninjected sides of the calvaria. New bone is identified by its characteristic woven structure, and osteoclasts and osteoblasts are identified by their distinctive morphology. Histomorphometry software (OsteoMeasure, Osteometrix, Inc., Atlanta) is used to process digitizer input to determine cell counts and measure areas or perimeters.
as §1, with “In more detail, male” for “Male”, “above.” for “in PCT application WO95/24211, incorporated by reference.”
Selected compounds and appropriate controls were assayed in vitro (ex vivo) for bone formation activity (described above in “Techniques for Neonatal Mouse Calvaria Assay (in vitro)). Histomorphometrical assessments of ex vivo calvaria were carried out using an OsteoMetrics bone morphometry measurement program, according to the manufacturer's instructions. Measurements were determined using either a 10- or 20-fold objective with a standard point counting eyepiece graticule.
New bone formation was determined (using a 10× objective) by measuring the new bone area formed in one field in 3 representative sections of each bone (4 bones per group). Each measurement was carried out ½ field distance from the end of the suture. Both total bone and old bone area were measured. Data were expressed as new bone width in mm.

[3] = test system: mice; assay: In vivo assay for bone mineral density; details: x2d, mean ± SE, n=10
[4] = test system: BMP2 promoter-Luc; assay: High throughput screening: BMP2 promoter-luciferase reporter in 2T3-BMP-2-LUC osteoblast cells; format: cell-based, mouse; details: 2T3 cells, mean ± SE, n=4
Description: 2, 1995, the entire contents of which are incorporated herein by reference. This assay is also described as a portion of a study of immortalized murine osteoblasts (derived from a mouse expressing a transgene composed of a BMP2 promoter driving expression of T-antigen) in Ghosh-Choudhery, N., et al., Endocrinology (1996) 137:331-39. In this study, the immortalized cells were stably transfected with a plasmid containing a luciferase reporter gene driven by a mouse BMP2 promoter (˜2736/114 bp), and responded in a dose-dependent manner to recombinant human BMP2.
Briefly, the assay utilizes cells transformed permanently or transiently with constructs in which the promoter of a bone morphogenetic protein, specifically BMP2 or BMP4, is coupled to a reporter gene, typically luciferase. These transformed cells are then evaluated for the production of the reporter gene product; compounds that activate the BMP promoter will drive production of the reporter protein, which can be readily assayed. Many thousands of compounds have been subjected to this rapid screening technique, and only a very small percentage are able to elicit a level of expression of reporter gene 5-fold greater than that produced by vehicle. […] The active compounds (“BMP promoter-active compounds” or “active compounds”) are useful in promoting bone or cartilage growth, and thus in the treatment of vertebrates in need of bone or cartilage growth.
In more detail, the 2T3-BMP-2-LUC cells, a stably transformed osteoblast cell line described in Ghosh-Choudhury et al. Endocrinology (1996) 137:331-39, referenced above, was employed. The cells were cultured using α-MEM, 10% FCS with 1% penicillin/streptomycin and 1% glutamine (“plating medium”), and were split 1:5 once per week. For the assay, the cells were resuspended in a plating medium containing 4% FCS, plated in microtiter plates at a concentration of 5×10^3 cells (in 50 μl)/well, and incubated for 24 hours at 37° C. in 5% CO2. To initiate the assay, 50 μl of the test compound or the control in DMSO was added at 2× concentration to each well, so that the final volume was 100 μl. The final serum concentration was 2% FCS, and the final DMSO concentration was 1%. Compound 59-0008 (10 μM) was used as a positive control.
The treated cells were incubated for 24 hours at 37° C. and 5% CO2. The medium was then removed, and the cells were rinsed three times with PBS. After removal of excess PBS, 25 μl of 1× cell culture lysing reagent (Promega #E153A) was added to each well and incubated for at least ten minutes. Optionally, the plates/samples could be frozen at this point. To each well was added 50 μl of luciferase substrate (Promega #E152A; 10 ml Promega luciferase assay buffer per 7 mg Promega luciferase assay substrate). Luminescence was measured on an automated 96-well luminometer, and was expressed as either picograms of luciferase activity per well or as picograms of luciferase activity per microgram of protein, as provided below, using TN-16 as the test compound.

Which “Bone Formation Rate: BFR/BS” value ([1]; 1 mg/kg/d, x5, mean ± SE) does the source give for `CCC(C)C(NC(=O)OCc1ccccc1)C(=O)NC(CCC(=O)OC(C)(C)C)C(=O)NC(C)C(=O)NC(C=O)CC(C)C` (stereo not drawn) [Ps-1] (Cbz-IE(OtBu)AL-aldehyde; configuration not given here) here?
The value was 1.766 ± 0.425* μm^3/μm^2/day.

And the “Bone Volume (%, BV/TV)” value ([1]; 1 mg/kg/d, x5, mean ± SE)?
Its value is 27.13 ± 1.51 %.

What does the source list for `CC(Nc1ccccc1)=C1C(=O)NC(Cc2ccccc2)C1=O` (stereo not drawn) [TN-16, 3-(1-Anilinoethylidene)-5-benzylpyrrolidine-2,4-dione]?
New Bone Width ([2]; 2 mg/kg/d): 0.120 ± 0.016 mm; New Bone Width ([2]; 4 mg/kg/d): 0.376 ± 0.029 mm; New Bone Width ([2]; 8 mg/kg/d): 0.525 ± 0.035 mm; BMD ([3]; Calvariae (1-month-old mice), 4 mg/kg/d): 26.0 ± 0.7 mg/cm^2; BMD ([3]; Calvariae (1-month-old mice), 8 mg/kg/d): 31.3 ± 0.5 mg/cm^2; BMD ([3]; Femora (3-month-old mice), 2 mg/kg/d): 90.1 ± 2.2 mg/cm^2; BMD ([3]; Femora (3-month-old mice), 4 mg/kg/d): 100.9 ± 1.6 mg/cm^2; BMD ([3]; Femora (3-month-old mice), 8 mg/kg/d): 102.1 ± 1.5 mg/cm^2; BMD ([3]; Tibiae (3-month-old mice), 2 mg/kg/d): 78.0 ± 2.2 mg/cm^2; BMD ([3]; Tibiae (3-month-old mice), 4 mg/kg/d): 84.5 ± 1.0 mg/cm^2; BMD ([3]; Tibiae (3-month-old mice), 8 mg/kg/d): 85.5 ± 0.8 mg/cm^2; Bone Formation Rate: BFR/BS ([1]; 2 mg/kg/d, x2, mean ± SE): 0.815 ± 0.129* μm^3/μm^2/day; Bone Volume (%, BV/TV) ([1]; 2 mg/kg/d, x2, mean ± SE): 23.42 ± 3.13 %; Bone Formation Rate: BFR/BS ([1]; 4 mg/kg/d, x2, mean ± SE): 1.130 ± 0.293* μm^3/μm^2/day; Bone Volume (%, BV/TV) ([1]; 4 mg/kg/d, x2, mean ± SE): 27.21 ± 2.14 %; Bone Formation Rate: BFR/BS ([1]; 8 mg/kg/d, x2, mean ± SE): 1.231 ± 0.181** μm^3/μm^2/day; Bone Volume (%, BV/TV) ([1]; 8 mg/kg/d, x2, mean ± SE): 25.44 ± 1.29 %; Luciferase Activity (Fold Change) (BMP2 promoter-Luc) ([4]; TN-16 0.16 μM): 2.4 ± 0.40 Fold Change; Luciferase Activity (Fold Change) (BMP2 promoter-Luc) ([4]; TN-16 0.31 μM): 4.0 ± 0.09 Fold Change; Luciferase Activity (Fold Change) (BMP2 promoter-Luc) ([4]; TN-16 0.61 μM): 4.8 ± 0.50 Fold Change; Luciferase Activity (Fold Change) (BMP2 promoter-Luc) ([4]; TN-16 1.25 μM): 5.6 ± 0.12 Fold Change; Luciferase Activity (Fold Change) (BMP2 promoter-Luc) ([4]; TN-16 2.5 μM): 6.2 ± 0.30 Fold Change

Which results are given for `COc1cc2c(c(OC)c1OC)-c1ccc(OC)c(=O)cc1C(NC(C)=O)CC2` (stereo not drawn) [Colchicine, N-(5,6,7,9-Tetrahydro-1,2,3,10-tetra-methoxy-9-oxobenzo[a]heptalen-7-yl) acetamide]?
New Bone Width ([2]; 0.1 mg/kg/d): 0.225 ± 0.013 mm; New Bone Width ([2]; 1.0 mg/kg/d): 0.305 ± 0.020 mm

How did the “New Bone Width” value ([2]; 1.5 mg/kg/d) turn out when `COC(=O)Nc1nc2cc(C(=O)c3cccs3)ccc2[nH]1` [Nocodazole, Methyl-[5-(2-thienylcarbonyl)-1 H-benzimidazole-2-yl]-carbamate] was run?
Its value is 0.231 ± 0.027 mm.
